In patent publication US20090053741A1 (priority 2005, published 2009):
Each block holds one compound with its values, some of them ahead of it.

How the values were obtained:
[1] = test system: nitric oxide synthase; details: cited from earlier work; for inhibition of NOS (in words): background statement
[2] = test system: DDAH; test: ADMA binding to DDAH (initial studies; equilibrium dialysis and calorimetry)
Source text: Secondly, the researchers tried to improve the binding of ADMA to DDAH through mutagenesis. Three more mutations were generated in E114 and around this residue. These were E114D, E114D+A115G, L18H (residue in the loop) and P80A. […] Other mutations around the active site were also generated: L161F, G116A, G116V and G116T.
Thirdly, the researchers tried to calculate a Kd for ADMA of DDAH using nuclear magnetic resonance imaging using the C249S or H162A mutant. […] Fourthly, the researchers tried a fluorophore (fluoresceine 5 maleimide or acrylodan) approach to measure the Kd for ADMA. […] Finally, the researchers generated four mutations with tryptophan: V15W and D16W (in the loop) as well as F58W and E90W (close to the active site). These four residues move in the NMR spectrum when inhibitors bind to the protein.

[3] = target: T1, bsNOS fragment (bacillus subtilis nitric oxide synthase oxygenase domain) (Bacillus subtilis, UniProt O34453); test: bsNOS binding to [14C]L-NMMA, PVDF filters with rapid washes; details: L-NMMA 1 mM, FIG. 3
T1 construct: made in house
Protocol: (§1) A=Control and B=excess L-NMMA.
A modified method previously described for binding [3H]nitroarginine to mammalian NOS was used to ensure rapid washes of the bsNOS fragment complexes and ligand to reduce time for dissociation (Liu Q and Gross S S, Methods Enzymol. 1996; 268:311-24). [^14C]L-NMMA ([…] −20000 counts total) was incubated with the bsNOS fragment ([…]) in assay buffer containing: 50 mM Tris pH 7.6; 50 uM BH4, 0.5 mM DTT. Reactants were incubated for 15 min at room temperature and NOS-bound [^14C]L-NMMA was separated from free [^14C]L-NMMA using PVDF filters and 3×1 ml rapid washes in cold Tris pH 7.6. Background was determined by the addition of 1 mM L-NMMA to bsNOS in assay buffer. Filters were added to 5 ml scintillation cocktail and counted in scintillation counter (Beckmann).

[4] = target: T2, iNOS (Mus musculus, UniProt P29477); test: [14C]L-NMMA binding to lysates of cytokine-stimulated J774 cells (iNOS lysate), filter assay; details: excess 1000-fold L-NMMA, FIG. 1, preliminary
T2 sequence (P29477 1-1144): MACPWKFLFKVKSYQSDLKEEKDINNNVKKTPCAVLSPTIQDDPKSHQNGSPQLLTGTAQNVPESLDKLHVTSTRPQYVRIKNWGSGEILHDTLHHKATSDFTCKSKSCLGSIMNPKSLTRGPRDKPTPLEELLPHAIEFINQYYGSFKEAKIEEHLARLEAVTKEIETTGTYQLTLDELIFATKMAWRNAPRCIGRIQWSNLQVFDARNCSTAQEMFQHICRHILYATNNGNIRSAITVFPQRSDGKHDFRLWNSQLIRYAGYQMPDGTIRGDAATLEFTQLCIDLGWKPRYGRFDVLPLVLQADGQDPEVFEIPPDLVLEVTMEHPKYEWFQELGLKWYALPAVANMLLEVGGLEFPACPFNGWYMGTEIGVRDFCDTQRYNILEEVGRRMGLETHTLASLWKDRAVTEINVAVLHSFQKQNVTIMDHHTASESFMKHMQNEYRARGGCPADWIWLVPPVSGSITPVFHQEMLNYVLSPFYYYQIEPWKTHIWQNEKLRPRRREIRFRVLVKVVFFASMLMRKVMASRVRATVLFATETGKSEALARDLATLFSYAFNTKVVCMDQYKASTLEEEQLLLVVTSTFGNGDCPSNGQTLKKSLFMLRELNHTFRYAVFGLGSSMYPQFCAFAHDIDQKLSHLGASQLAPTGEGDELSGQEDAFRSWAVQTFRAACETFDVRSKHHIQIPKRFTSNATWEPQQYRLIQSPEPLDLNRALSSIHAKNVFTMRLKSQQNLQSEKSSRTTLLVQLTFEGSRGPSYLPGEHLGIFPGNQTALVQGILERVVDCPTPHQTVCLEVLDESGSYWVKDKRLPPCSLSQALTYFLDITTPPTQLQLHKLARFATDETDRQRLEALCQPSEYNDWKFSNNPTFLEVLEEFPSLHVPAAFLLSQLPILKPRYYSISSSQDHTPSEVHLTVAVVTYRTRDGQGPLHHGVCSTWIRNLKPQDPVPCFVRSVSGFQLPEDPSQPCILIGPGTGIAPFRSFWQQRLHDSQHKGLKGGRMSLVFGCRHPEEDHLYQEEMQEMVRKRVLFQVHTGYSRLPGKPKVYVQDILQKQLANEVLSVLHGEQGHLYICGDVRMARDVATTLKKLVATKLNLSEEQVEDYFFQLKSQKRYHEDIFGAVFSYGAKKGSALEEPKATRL
Protocol: A=J774 stimulated, B=J774 stimulated+L-NMMA, C=control and D=control+L-NMMA.
Macrophages (J774 cells) were stimulated with a cytokine cocktail (LPS/IFN/TNF) for 24 h, to induce iNOS expression, and cell lysates were collected. […] Low molecular weight molecules were removed from lysates using 30000 MW cut-off filters. Lysates were incubated on 3000 MW filters with [^14C]L-NMMA for 15 min ([…] L-NMMA), washed 3× with cold TRIS buffer and filters counted.

[5] = target: T1, bsNOS fragment (bacillus subtilis nitric oxide synthase oxygenase domain); test: [14C]L-NMMA binding to bsNOS fragment on 30000 MW cut off filters; details: 1000-fold excess unlabelled L-NMMA, FIG. 2, preliminary
Protocol: as §1
A bacillus subtilis nitric oxide synthase oxygenase domain (“fragment”) was PCR amplified from genomic DNA with Nde1 and BamH1 sites added at the 5′ and 3′ ends respectively and cloned into pET15b vector. The bsNOS fragment corresponded to SEQ ID NO: 2 and was purified as previously described (Pant et al., Biochemistry; 2002; 41:11071-11079).
[^14C]L-NMMA (3.75 nmol) was incubated with the bsNOS fragment ([…]) on 30000 MW cut off filters in the presence and absence (Control) of 1000-fold excess unlabelled L-NMMA.

T1 sequence (O34453 other isoform, or with tags, fused parts or gaps with the stated changes): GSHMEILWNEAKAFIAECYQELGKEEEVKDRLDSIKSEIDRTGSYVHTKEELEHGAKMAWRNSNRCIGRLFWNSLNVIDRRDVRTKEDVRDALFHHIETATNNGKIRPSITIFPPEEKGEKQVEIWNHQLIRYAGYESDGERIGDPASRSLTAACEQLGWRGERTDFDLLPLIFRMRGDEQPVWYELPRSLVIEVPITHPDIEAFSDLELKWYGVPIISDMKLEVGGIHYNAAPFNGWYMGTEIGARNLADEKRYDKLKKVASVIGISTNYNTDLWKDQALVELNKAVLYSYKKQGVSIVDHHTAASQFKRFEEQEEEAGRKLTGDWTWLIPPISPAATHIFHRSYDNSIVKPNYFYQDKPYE

SMILES: CN=C(NC)NCCC[C@H](N)C(=O)O [SDMA, symmetric dimethylarginine]
- inhibition of NOS (in words) [1]: does not inhibit NOS

- saturation of DDAH in calorimetry experiments ([2]; inactive mutations C249S, H162A, E114Q, very high concentrations of ADMA (10 mM)): saturation was never reached
- concentrations necessary to get binding to DDAH ([2]; initial studies): millimolar concentrations
SMILES: CN(C)C(=N)NCCCC(N)C(=O)O (stereo not drawn) [ADMA, asymmetric dimethylarginine]
- inhibition of NOS (in words) [1]: equipotent

SMILES: N=C(N)NCCC[C@H](N)C(=O)O [arginine]
- Km ([1]; nitric oxide synthase, the 3 enzymes, read-out: Km for arginine): 7 to 19 µM

SMILES: CNC(=N)NCCC[C@H](N)C(=O)O [L-NMMA, N^G-monomethyl-L-arginine]
- inhibition of NOS (in words) [1]: equipotent
- [14C]L-NMMA binding in the presence of unlabelled ligand [3]: reduced to background
- competition of [14C]L-NMMA binding by unlabelled ligand [4]: competed out
- competition of [14C]L-NMMA binding by unlabelled ligand [5]: competed out
